The source of these data is publication PMC7064771, “Repurposed Drugs That Block the Gonococcus-Complement Receptor 3 Interaction Can Prevent and Cure Gonococcal Infection of Primary Human Cervical Epithelial Cells” (mBio, 2020).

The target in one test is T1, G2 peptide (Homo sapiens, UniProt P11215).
T1 construct: corresponds to amino acids Arg197 to Pro211 of human CD11b
Description: SPR of glycans over immobilized biotin-AhxG2-streptavidin complex. Type of test: binding. Conditions: for KD, G2 Peptide: synthetic glycans over biotin-Ahx-labeled G2 peptide complexed with streptavidin, NCDI = no concentration-dependent interaction. As to the method:
To assess the kinetics of the selected peptides, biotinylated versions of each peptide were synthesized. This enabled immobilization via streptavidin onto Series S CM5 sensor chips. Purified biotin-AhxG2 (G2 peptide with a six-carbon spacer linked to biotin) (Table S1), was incubated with streptavidin (Sigma, Castle Hill, NSW, Australia) for 2 h on ice at a 12:1 molar ratio of peptide to protein. Unreacted peptide was removed using a 10-kDa-molecular-weight-cutoff size exclusion column (EMD Millipore, Bayswater, VIC, Australia). Semi-native SDS-PAGE analysis was used to confirm peptide binding to streptavidin. To this end, streptavidin-peptide complexes were added to nonreducing NuPAGE sample buffer (Life Technologies, Scoresby, VIC, Australia). To ensure that peptide-streptavidin complexes were not denatured, heat was not applied before loading onto SDS-polyacrylamide 4% to 12% gradient gels (Life Technologies). A streptavidin-biotin complex was used as a reference control for the molecular weight shift that could be attributed to the peptide. Serially diluted glycans (1 μM to 0.0625 μM) were flowed over sensor chips. Other aspects of SPR analysis were as described above.

Test [1] addresses T2, human rI-domain (Homo sapiens, UniProt P11215).
T2 construct: Recombinant human and mouse I-domain proteins were made and purified as previously described; made in house
Description: Surface plasmon resonance, immobilized human rI-domain. In kind it is binding. The protocol:
(§1) SPR analyses were performed using a Biacore S200 system (GE Healthcare Life Sciences, Parramatta, NSW, Australia). Samples were analyzed at 25°C in phosphate-buffered saline (PBS) at a flow rate of 10 μl/min and by using single-cycle kinetics. Human rI-domain, mouse rI-domain, and human rCR3 were immobilized onto separate cells of a Series S CM5 sensor chip using an NHS capture kit (both from GE Healthcare Life Sciences) for purified pilin experiments. For experiments in which pilin-glycan-like structures were examined, human rI-domain and rCR3 were immobilized onto separate cells of a CM5 chip. A blank immobilization was used as a control/reference on all chips. MS11 wild-type and MS11 pglA pilin were serially diluted from 2 μM to 0.125 μM in PBS. Glycans (Dextra Laboratories, Reading, UK) (Table 2), resembling the gonococcal Gal(α1-3)diNAcBac pilin-linked glycan, were serially diluted from 2 μM to 0.0078 μM in PBS. Affinity data points were taken at 15 s after injection to avoid an artefactual signal resulting from bulk transport. SPR sensorgrams were analyzed using Biacore Evaluation software (GE Healthcare Life Sciences).
(SPR reads the build-up and loss of mass on a sensor chip optically.)

Test [2] addresses T3, human rCR3 (integrin αMβ2) (Homo sapiens, UniProt P05107+P11215).
T3 construct: purchased R&D Systems
The test is described as follows: Surface plasmon resonance, immobilized human rCR3. Type of test: binding. As to the method:
as §1

Test [3] concerns the target T4, human rCR3 (integrin αMβ2) (Homo sapiens, UniProt P11215).
T4 construct: purchased R&D Systems
Description: Surface plasmon resonance, immobilized human rCR3. Type of test: binding. The protocol:
as §1

Test [4] relates to N. gonorrhoeae adherence to Pex cells. Description: Fluorometric adherence assay, Pex cells. In kind it is cell-based, human. To be noted: 1-h infection with GFP-expressing N. gonorrhoeae, competitor added simultaneously. The protocol:
(§2) Fluorometric adherence assays were performed essentially as described previously ([36]). In brief, N. gonorrhoeae MS11 gfp was used to challenge (1 h) Pex or CHO cells simultaneously with peptide or drug competitor. Infected (devoid of peptide or drug) and uninfected (with peptide, drug, or dimethyl sulfoxide [DMSO] vehicle) control cell assays were treated in parallel with competitive peptide/drug inhibition assays. Fluorescence (485 nm excitation, 528 nm emission) intensity, corresponding to bacterial adherence, was recorded using a Synergy HT multimode microplate reader (BioTek Instruments, Winooski, VT, USA). Blank wells, devoid of Pex or CHO cells, were inoculated with bacteria and served as a control for nonspecific binding. Each assay was performed in triplicates on 3 separate occasions. Peptides used are described in Table S1. A nonparametric analysis of variance (ANOVA) was used to determine the statistical significance of the calculated mean of bacterial adherence.

The target of test [5] is T2, human rI-domain. Description: Repurposed drug SPR against human CR3 I-domain (single-cycle kinetics). To be noted: 10 nM to 0.625 nM, read-out: KD, binding to human rI-domain. As to the method:
Human rI-domain was immobilized onto a CM5 sensor chip with a blank control flow cell as described above. A combination of two FDA-approved drug libraries, Microsource-CPOZ (2,400 drugs) and ML Drug (741 drugs), was purchased from Compounds Australia. […] A single-concentration injection screen (yes/no) binding assay was performed. Binding was determined based on the response unit shift (equal to the molecular weight-corrected response units of the positive-control glycan) of the stability of the binding phase of the dissociation cycle. […] For carbamazepine and methyldopa, saturation occurred between 1.6 nM and 8 nM, and so a new concentration range (10 nM to 0.625 nM) was tested. […] All SPR sensorgrams and result plots described above were analyzed with Biacore S200 evaluation software (GE Healthcare Life Sciences). A literature review was used to evaluate the remaining drugs for known long-term safety in humans and known therapeutic concentrations.

The test system of test [6] is N. gonorrhoeae infection of Pex cells. The protocol:
Infection studies were performed as previously described with modification using a multiplicity of infection of 100 ([44]). To establish infection before treatment, Pex cells were challenged with N. gonorrhoeae for 90 min. The infection medium was then removed, the cells were rinsed thrice, and fresh medium containing 0.1% DMSO (vehicle control), carbamazepine (100 pM to 100 μM), methyldopa (100 pM to 100 μM), or ceftriaxone (0.1 μg/ml or 0.5 μg/ml, positive control) was added. Infections then proceeded for an additional 24 h or 48 h, after which, the infection medium was removed. Pex cell monolayers were subsequently lysed, serial dilutions of the Pex cell lysates were plated, and viable gonococci were enumerated by counting CFU after 48 h of incubation (37°C, 5% CO2). For sequential infection assays, viable bacterial colonies that survived a treatment assay were harvested from the enumeration (CFU) plates and used to inoculate new Pex cell monolayers. For these sequential assays, each infection (the original infection or the infection with bacteria that had survived the original infection) proceeded for 24 h. Pex cells were then processed, and bacteria were enumerated, as described above. For all assays, the percentage of N. gonorrhoeae that survived carbamazepine, methyldopa, or ceftriaxone treatment was determined as a function of bacteria that survived DMSO treatment (set to 100%). All assays were performed in triplicates on 3 separate occasions. A nonparametric ANOVA was used to determine the statistical significance of bacterial survival.

Test [7] has as its target T2, human rI-domain. Description: Direct competition SPR, drug versus N. gonorrhoeae MS11 pilin. In kind it is binding. Conditions: drug and pilin at 1 μM.
The test system of test [8] is N. gonorrhoeae adherence to CHO-neo cells. Description: Fluorometric adherence assay, CHO-neo cells. Type of test: cell-based, Chinese hamster. To be noted: 1-h infection; cells do not express CR3. The protocol:
as §2

Test [9] relates to N. gonorrhoeae adherence to CHO-CR3 cells. The test is described as follows: Fluorometric adherence assay, CHO-CR3 cells. In kind it is cell-based, Chinese hamster. To be noted: 1-h infection with GFP-expressing N. gonorrhoeae, competitor added simultaneously. As to the method: as §2
The test system of the next test is N. gonorrhoeae strains. Description: Well diffusion assay. Type of test: cell-based, Neisseria gonorrhoeae. Conditions: 100 pM to 100 μM in wells, overnight. As to the method:
Well diffusion assays were performed essentially as described previously ([56]). Briefly, N. gonorrhoeae strains were spread uniformly across the surfaces of GC agar plates at a culture density of 10^7 bacteria per ml. Wells were then punctured within the agar surface to which carbamazepine or methyldopa (100 pM to 100 μM), 0.2 μg/ml ceftriaxone, 10 μg/ml ciprofloxacin, or 1% DMSO (vehicle control) was added. Following an overnight incubation (37°C, 5% CO2), inhibition of N. gonorrhoeae growth was measured as the diameter (in millimeters) of the area of clearing surrounding (and inclusive of) each well on each agar plate, i.e., the zone of inhibition (ZOI). For agar plates in which a ZOI was not visible, data were recorded as the diameter of the well (6 mm). Assays were performed in triplicates on 3 separate occasions. Statistical significance of data obtained was determined using a Student's t test.

[10] abbreviates: synthetic glycans, NCDI = no interaction at any concentration between 0.0078 μM and 2 μM, read-out: KD, rI-domain.
The mark [11] stands for this setting: synthetic glycans, NCDI = no interaction at any concentration between 0.0078 μM and 2 μM, read-out: KD, rCR3.
The mark [12] stands for this setting: synthetic glycans, NCDI = no interaction at any concentration between 0.0078 μM and 2 μM.

For orientation: Kd means the concentration at which binding is half-saturated.

Entries after “also recorded” stand apart in the source; their conditions may differ. Where two headings read alike, the source gives them in different places.

T3 sequence (P05107 23-700, one chain of several): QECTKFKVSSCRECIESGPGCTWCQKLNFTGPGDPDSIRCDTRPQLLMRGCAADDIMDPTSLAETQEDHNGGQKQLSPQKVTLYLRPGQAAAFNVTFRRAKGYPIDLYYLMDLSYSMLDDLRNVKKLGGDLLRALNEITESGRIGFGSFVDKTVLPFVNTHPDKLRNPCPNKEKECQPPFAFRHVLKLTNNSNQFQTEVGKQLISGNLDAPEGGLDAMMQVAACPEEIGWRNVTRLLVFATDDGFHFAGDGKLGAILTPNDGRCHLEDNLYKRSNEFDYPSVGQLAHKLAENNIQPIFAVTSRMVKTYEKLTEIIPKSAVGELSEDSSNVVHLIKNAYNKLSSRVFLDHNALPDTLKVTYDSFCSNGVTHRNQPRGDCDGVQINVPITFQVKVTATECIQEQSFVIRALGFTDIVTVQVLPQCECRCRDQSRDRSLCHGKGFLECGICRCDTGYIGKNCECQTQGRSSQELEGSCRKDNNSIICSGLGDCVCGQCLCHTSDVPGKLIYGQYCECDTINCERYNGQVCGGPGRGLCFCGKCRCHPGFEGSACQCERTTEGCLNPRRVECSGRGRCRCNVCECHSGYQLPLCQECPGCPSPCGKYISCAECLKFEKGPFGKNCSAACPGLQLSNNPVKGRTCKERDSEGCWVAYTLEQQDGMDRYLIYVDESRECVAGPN

As for `OCC1OC(OC2C(O)C(O)OC(CO)C2O)C(O)C(O)C1O` (centres unmarked) [Galactobiose], the Kd was found to be 174 ± 45.1 nM on G2 peptide, 229 ± 73.1 nM on human rI-domain [1] and 68.7 ± 1.75 nM in test [2].
In the case of `OC[C@H]1O[C@@H](O[C@H]2[C@H](O)[C@@H](O)[C@H](O)O[C@@H]2CO)[C@H](O)[C@@H](O)[C@H]1O` [Lactose], the Kd on human rI-domain [1] (setting [10]) worked out at 117 ± 13.3 nM; in [2] (setting [11]), 138 ± 33.7 nM.
With `CC(=O)NC1C(O)OC(CO)C(OC2OC(CO)C(O)C(OC3OC(CO)C(O)C(O)C3O)C2O)C1O` (centres unmarked) [Linear B-2 Trisaccharide], the Kd amounted to 293 ± 13.1 nM at human rI-domain [1] (setting [10]) and 44.8 ± 18.1 nM in test [2] (setting [11]).
As to `CO[C@H]1O[C@H](CO)[C@H](O)[C@H](O)[C@H]1O` [Methyl-α-D-galactose], the Kd on G2 peptide amounted to 118 ± 11.8 nM; at human rI-domain [1] (setting [10]), 269 ± 85.1 nM; in [2] (setting [11]), 56.5 ± 19.8 nM.
As for `CC(=O)NC1C(O)OC(CO)C(OC2OC(CO)C(OC3OC(CO)C(O)C(O)C3O)C(O)C2O)C1O` (centres unmarked) [P1 Antigen], the Kd came to 202 ± 48.7 nM on human rI-domain [1] (setting [10]) and 48.3 ± 14.2 nM in [2] (setting [11]).
Turning to `OC[C@H]1O[C@@](CO)(O[C@H]2O[C@H](CO)[C@@H](O)[C@H](O)[C@H]2O)[C@@H](O)[C@@H]1O` [Sucrose], the “KD, G2 Peptide” value is given as “NCDI” at G2 peptide and “no concentration-dependent interaction” at G2 peptide (listed as sucrose). Moreover, the “KD, rI-domain” value at human rI-domain [1] (setting [12]) is “did not bind and NCDI”. Further, the “KD, rCR3” value in test [3] (setting [12]) is “did not bind and NCDI”.
As for `C[C@](N)(Cc1ccc(O)c(O)c1)C(=O)O` [methyldopa], the “Gonococcal adherence to Pex cells (fluorescence)” value (from here on “Gonococcal adherence to Pex cells”) in test [4] is listed as “decreased in a dose-dependent manner”; in test [4] (listed as Methyldopa), “dose-dependent decrease”. The Kd on human rI-domain [5] came to 1.01 nM. Also, the “N. gonorrhoeae strain MS11 survival” value in [6] (24 h posttreatment, 100 pM to 100 μM) is listed as “dose-dependent reductions”. Moreover, the “Numbers of viable gonococci, low-passage-number gonococcal isolates” value in [6] (24 h posttreatment, established Pex cell infections) was “significant reductions”. The “Efficacy in treating multidrug-resistant gonococci compared with ceftriaxone” value in test [6] (panel of multidrug-resistant N. gonorrhoeae isolates) is listed as “more effective than ceftriaxone”. Further, the “Blocking of the interaction of N. gonorrhoeae MS11 pilin with rCR3 or rI-domain” value at human rI-domain [7] was “completely blocked”. Further, the “Gonococcal adherence to CHO-neo cells (fluorescence)” value in test [8] is recorded as “but not to CHO-neo cells”. In addition, the “Gonococcal adherence to CHO-CR3 cells (fluorescence)” value in [9] was “decreased in a dose-dependent manner; also recorded: CR3- and dose-dependent reduction”. Moreover, in the test with N. gonorrhoeae strains, the “Effect on gonococcal viability in the absence of Pex cells (zone of inhibition)” value was “no effect; also recorded: neither carbamazepine nor methyldopa had an effect”.
With `OCC1OC(OC2C(O)C(CO)OC(OC3C(CO)OC(OC4C(O)C(O)OC(CO)C4O)C(O)C3O)C2O)C(O)C(O)C1O` (stereo not drawn) [α1-3,β1-4,α1-3 Galactotetraose], the Kd on human rI-domain [1] (setting [10]) worked out at 320 ± 67.2 nM; in [3] (setting [11]) it was 26.2 ± 9.18 nM.
As to `OC[C@H]1O[C@@H](O[C@H]2[C@H](O)[C@@H](O)[C@@H](O)O[C@@H]2CO)[C@H](O)[C@@H](O)[C@H]1O` [αLactose], the Kd on human rI-domain [1] (setting [10]) was found to be 202 ± 54.4 nM; in [2] (setting [11]), 79.8 ± 15 nM.
As to “H-CATFTAPGRTSTFSF-OH [P2, H-CATFTAPGRTSTFSF-OH]”, in test [4], the “Gonococcal adherence to Pex cells” value was “nonblocking”. For the same compound, in test [9], the “Gonococcal adherence to CHO-CR3 cells (fluorescence)” value is “nonblocking”.
Take H-CNNPSSTVPHNVDFH-OH [P1]: the “Gonococcal adherence to Pex cells” value in test [4] is given as “nonblocking”. Moreover, the “Gonococcal adherence to CHO-CR3 cells (fluorescence)” value in test [9] is recorded as “nonblocking”.
Take “MS11 wild type: N. gonorrhoeae MS11 pilin modified with the Gal(α1-3)diNAcBac disaccharide glycan”: the Kd in [3] (purified pilin 0.125-2 μM, NCDI = no concentration-dependent interaction (no binding of ≤2 μM), read-out: KD, Human CR3) amounted to 907 ± 43.8 nM.
